Source: ChEMBL document CHEMBL3885861, “Open TG-GATES”

Organism: Rattus norvegicus
Assay: Open TG-GATES - Regimen: Single
Type: toxicity, organism-based, Sprague-Dawley
Set-up: regimen Single, gender Male, age 6 weeks
Details: in vivo, po, 0 mg/kg, route gavage, dose level Control; for APTT / Bas / Eos / Fbg / Hb / Ht / Lym / MCH / MCHC / MCV / Mono / Neu / PT / Plat / RBC / Ret / WBC: tissue Blood; for KIDNEY_L / KIDNEY_R / KIDNEY_TOTAL: tissue Kidney; for LIVER: tissue Liver; for A/G / ALP / ALT / AST / BUN / CRE / Ca / Cl / DBIL / GLC / IP / K / LDH / Na / PL / RALB / TBIL / TC / TG / TP / gamma-GTP: tissue Plasma

Q: What does the source list for `O=C(O)COc1nn(Cc2ccccc2)c2ccccc12` [BENDAZAC]?
A: TERMINAL_BW (3 h): 211 g; APTT (3 h): 17.2 s; Bas (3 h): 0%; Eos (3 h): 0.8%; Fbg (3 h): 208.8 mg/dL; Hb (3 h): 13.6 g/dL; Ht (3 h): 40.7%; Lym (3 h): 77.2%; MCH (3 h): 21.7 pg; MCHC (3 h): 33.3%; MCV (3 h): 65.1 fL; Mono (3 h): 10.4%; Neu (3 h): 12%; PT (3 h): 11.2 s; Plat (3 h): 119 x10_4/uL; RBC (3 h): 625 x10_4/ul; Ret (3 h): 8.9%; WBC (3 h): 108.6 x10_2/uL; KIDNEY_L (3 h): 0.9 g; KIDNEY_R (3 h): 1 g; KIDNEY_TOTAL (3 h): 1.9 g; LIVER (3 h): 10 g; A/G (3 h): 2.2; ALP (3 h): 955 IU/L; ALT (3 h): 37.2 IU/L; AST (3 h): 65.8 IU/L; BUN (3 h): 12.4 mg/dL; CRE (3 h): 0.5 mg/dL; Ca (3 h): 10.9 mg/dL; Cl (3 h): 103.8 meq/L; DBIL (3 h): 0.008 mg/dL; GLC (3 h): 199.4 mg/dL; IP (3 h): 8.2 mg/dL; K (3 h): 4.5 meq/L; LDH (3 h): 89.4 IU/L; Na (3 h): 139.8 meq/L; PL (3 h): 145.4 mg/dL; RALB (3 h): 3.7 g/dL; TBIL (3 h): 0.3 mg/dL; TC (3 h): 81 mg/dL; TG (3 h): 67 mg/dL; TP (3 h): 5.4 g/dL; gamma-GTP (3 h): 1 IU/L; TERMINAL_BW (6 h): 209.6 g; APTT (6 h): 17.5 s; Bas (6 h): 0%; Eos (6 h): 0.8%; Fbg (6 h): 200.2 mg/dL; Hb (6 h): 13.9 g/dL; Ht (6 h): 41.5%; Lym (6 h): 77.2%; MCH (6 h): 21.6 pg; MCHC (6 h): 33.4%; MCV (6 h): 64.7 fL; Mono (6 h): 8.4%; Neu (6 h): 13.4%; PT (6 h): 11.7 s; Plat (6 h): 123 x10_4/uL; RBC (6 h): 642.4 x10_4/ul; Ret (6 h): 10%; WBC (6 h): 96.6 x10_2/uL; KIDNEY_L (6 h): 1 g; KIDNEY_R (6 h): 1 g; KIDNEY_TOTAL (6 h): 2 g; LIVER (6 h): 9.4 g; A/G (6 h): 2.2; ALP (6 h): 801.4 IU/L; ALT (6 h): 33.2 IU/L; AST (6 h): 59.8 IU/L; BUN (6 h): 11.6 mg/dL; CRE (6 h): 0.5 mg/dL; Ca (6 h): 10.7 mg/dL; Cl (6 h): 105.6 meq/L; DBIL (6 h): 0.054 mg/dL; GLC (6 h): 186.8 mg/dL; IP (6 h): 9.6 mg/dL; K (6 h): 4.8 meq/L; LDH (6 h): 75.2 IU/L; Na (6 h): 140.8 meq/L; PL (6 h): 135.6 mg/dL; RALB (6 h): 3.6 g/dL; TBIL (6 h): 0.5 mg/dL; TC (6 h): 72.6 mg/dL; TG (6 h): 75.8 mg/dL; TP (6 h): 5.2 g/dL; gamma-GTP (6 h): 2 IU/L; TERMINAL_BW (9 h): 211.9 g; APTT (9 h): 16.6 s; Bas (9 h): 0%; Eos (9 h): 1.2%; Fbg (9 h): 206.4 mg/dL; Hb (9 h): 13.5 g/dL; Ht (9 h): 40.3%; Lym (9 h): 76.8%; MCH (9 h): 22 pg; MCHC (9 h): 33.5%; MCV (9 h): 65.8 fL; Mono (9 h): 9.6%; Neu (9 h): 12.8%; PT (9 h): 11.8 s; Plat (9 h): 107.3 x10_4/uL; RBC (9 h): 613.4 x10_4/ul; Ret (9 h): 10.7%; WBC (9 h): 98.1 x10_2/uL; KIDNEY_L (9 h): 1 g; KIDNEY_R (9 h): 1 g; KIDNEY_TOTAL (9 h): 2 g; LIVER (9 h): 9 g; A/G (9 h): 2.1; ALP (9 h): 700.2 IU/L; ALT (9 h): 30 IU/L; AST (9 h): 64.4 IU/L; BUN (9 h): 10.8 mg/dL; CRE (9 h): 0.6 mg/dL; Ca (9 h): 10.6 mg/dL; Cl (9 h): 106 meq/L; DBIL (9 h): 0.056 mg/dL; GLC (9 h): 197.2 mg/dL; IP (9 h): 9.9 mg/dL; K (9 h): 4.6 meq/L; LDH (9 h): 75 IU/L; Na (9 h): 143 meq/L; PL (9 h): 134.4 mg/dL; RALB (9 h): 3.7 g/dL; TBIL (9 h): 0.4 mg/dL; TC (9 h): 73.4 mg/dL; TG (9 h): 44.2 mg/dL; TP (9 h): 5.5 g/dL; gamma-GTP (9 h): 1.8 IU/L; TERMINAL_BW (24 h): 229.7 g; APTT (24 h): 17 s; Bas (24 h): 0%; Eos (24 h): 1%; Fbg (24 h): 210.8 mg/dL; Hb (24 h): 13.5 g/dL; Ht (24 h): 39.7%; Lym (24 h): 77.2%; MCH (24 h): 22.2 pg; MCHC (24 h): 34%; MCV (24 h): 65.2 fL; Mono (24 h): 9.6%; Neu (24 h): 12.4%; PT (24 h): 12 s; Plat (24 h): 125.1 x10_4/uL; RBC (24 h): 609.6 x10_4/ul; Ret (24 h): 9.8%; WBC (24 h): 103.2 x10_2/uL; KIDNEY_L (24 h): 1 g; KIDNEY_R (24 h): 1 g; KIDNEY_TOTAL (24 h): 2 g; LIVER (24 h): 10.7 g; A/G (24 h): 2; ALP (24 h): 978 IU/L; ALT (24 h): 39.8 IU/L; AST (24 h): 67.2 IU/L; BUN (24 h): 17.8 mg/dL; CRE (24 h): 0.6 mg/dL; Ca (24 h): 11 mg/dL; Cl (24 h): 104.6 meq/L; DBIL (24 h): 0.006 mg/dL; GLC (24 h): 194.2 mg/dL; IP (24 h): 7.9 mg/dL; K (24 h): 4.8 meq/L; LDH (24 h): 80.6 IU/L; Na (24 h): 140.4 meq/L; PL (24 h): 144.6 mg/dL; RALB (24 h): 3.7 g/dL; TBIL (24 h): 0.3 mg/dL; TC (24 h): 77.2 mg/dL; TG (24 h): 102 mg/dL; TP (24 h): 5.6 g/dL; gamma-GTP (24 h): 1.2 IU/L
